Target: cystic fibrosis transmembrane conductance regulator (CFTR) (Homo sapiens, UniProt P13569)
Test: inside-out patch clamp, inhibition of ATP-dependent channel open probability
Assay type: cell-based

cystic fibrosis transmembrane conductance regulator (CFTR), sequence (P13569 whole entry): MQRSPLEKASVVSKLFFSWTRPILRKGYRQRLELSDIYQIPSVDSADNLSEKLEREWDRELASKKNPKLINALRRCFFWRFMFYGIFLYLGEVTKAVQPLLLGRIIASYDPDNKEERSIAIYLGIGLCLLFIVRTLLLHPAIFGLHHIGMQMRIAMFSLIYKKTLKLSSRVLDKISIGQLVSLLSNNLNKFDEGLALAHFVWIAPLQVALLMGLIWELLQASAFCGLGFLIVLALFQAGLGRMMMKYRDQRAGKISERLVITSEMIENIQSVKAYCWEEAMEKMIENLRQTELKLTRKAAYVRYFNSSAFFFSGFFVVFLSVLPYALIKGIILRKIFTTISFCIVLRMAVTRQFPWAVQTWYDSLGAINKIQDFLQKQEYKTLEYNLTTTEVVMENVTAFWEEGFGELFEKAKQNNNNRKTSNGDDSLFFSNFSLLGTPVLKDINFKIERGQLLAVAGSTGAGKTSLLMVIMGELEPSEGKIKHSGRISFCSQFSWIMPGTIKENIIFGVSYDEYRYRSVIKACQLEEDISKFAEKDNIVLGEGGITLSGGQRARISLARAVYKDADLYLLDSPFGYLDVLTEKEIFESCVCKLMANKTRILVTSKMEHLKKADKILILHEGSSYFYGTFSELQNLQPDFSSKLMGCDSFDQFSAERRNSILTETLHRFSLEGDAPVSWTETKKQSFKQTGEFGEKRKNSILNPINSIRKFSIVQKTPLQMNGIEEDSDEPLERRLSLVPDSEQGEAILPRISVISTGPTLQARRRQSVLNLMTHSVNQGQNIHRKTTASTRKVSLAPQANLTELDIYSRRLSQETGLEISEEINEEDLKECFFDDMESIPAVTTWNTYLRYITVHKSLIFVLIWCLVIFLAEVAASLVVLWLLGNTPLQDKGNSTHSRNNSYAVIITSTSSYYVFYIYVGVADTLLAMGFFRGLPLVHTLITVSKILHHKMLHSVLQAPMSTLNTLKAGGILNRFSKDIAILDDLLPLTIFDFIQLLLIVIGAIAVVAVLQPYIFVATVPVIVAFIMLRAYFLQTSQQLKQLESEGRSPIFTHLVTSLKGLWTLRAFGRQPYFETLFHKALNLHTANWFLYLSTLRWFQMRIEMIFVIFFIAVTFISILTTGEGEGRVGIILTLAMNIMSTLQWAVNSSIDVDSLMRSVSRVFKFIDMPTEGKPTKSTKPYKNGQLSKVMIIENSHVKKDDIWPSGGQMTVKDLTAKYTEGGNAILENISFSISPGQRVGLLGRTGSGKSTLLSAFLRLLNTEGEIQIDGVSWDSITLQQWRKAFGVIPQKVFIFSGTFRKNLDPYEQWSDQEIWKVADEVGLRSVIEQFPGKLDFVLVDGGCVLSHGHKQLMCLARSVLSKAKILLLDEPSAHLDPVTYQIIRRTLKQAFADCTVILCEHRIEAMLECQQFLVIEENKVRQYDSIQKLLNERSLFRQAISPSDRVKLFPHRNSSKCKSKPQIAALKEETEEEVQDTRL

Ki: 16 ± 9 µM
Compound: Nc1ncnc2c1ncn2[C@@H]1O[C@H](COP(=O)(O)OP(=O)(O)O)[C@@H](O)[C@H]1O [ADP]
